Test results as given in PubChem BioAssay (NCI).
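Protocol summary: plate cells (96-well), add compound at 5 concentrations, incubate 48 h, interpolate endpoints linearly. TGI is the concentration that stops growth completely.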

Key:
Test in all cases: inhibition of tumour cell growth, NCI panel, 48 h
[1] = tested on: U251 CNS
[2] = tested on: UO-31 renal
[3] = tested on: M14 melanoma
[4] = tested on: HT29 colon
[5] = tested on: TK-10 renal
[6] = tested on: HOP-92 NSCLC
[7] = tested on: MOLT-4 leukemia
[8] = tested on: NCI-H23 lung
[9] = tested on: SNB-19 CNS
[10] = tested on: K-562 leukemia
[11] = tested on: SN12C renal
[12] = tested on: BT-549 breast
[13] = tested on: SK-OV-3 ovarian
[14] = tested on: NCI-H460 lung
[15] = tested on: SK-MEL-5 melanoma
[16] = tested on: CCRF-CEM leukemia
[17] = tested on: DU-145 prostate
[18] = tested on: SNB-75 CNS
[19] = tested on: IGROV1 ovarian
[20] = tested on: HL-60(TB) leukemia
[21] = tested on: EKVX NSCLC
[22] = tested on: UACC-62 melanoma
[23] = tested on: NCI-H226 lung
[24] = tested on: HCC-2998 colon
[25] = tested on: HCT-116 colon
[26] = tested on: HS 578T breast
[27] = tested on: SF-268 CNS
[28] = tested on: KM12 colon
[29] = tested on: OVCAR-4 ovarian
[30] = tested on: MDA-MB-435
[31] = tested on: A549 NSCLC
[32] = tested on: SK-MEL-2 melanoma
[33] = tested on: UACC-257 melanoma
[34] = tested on: 786-0 renal
[35] = tested on: HCT-15 colon
[36] = tested on: MDA-N
[37] = tested on: SR leukemia
[38] = tested on: ACHN renal
[39] = tested on: MALME-3M melanoma
[40] = tested on: SF-539 CNS
[41] = tested on: OVCAR-8 ovarian
[42] = tested on: OVCAR-3 ovarian
[43] = tested on: NCI/ADR-RES ovarian
[44] = tested on: OVCAR-5 ovarian
[45] = tested on: SF-295 CNS
[46] = tested on: NCI-H522 lung
[47] = tested on: HOP-62 NSCLC
[48] = tested on: CAKI-1 renal
[49] = tested on: SK-MEL-28 melanoma
[50] = tested on: RPMI-8226 leukemia
[51] = tested on: COLO 205 colon
[52] = tested on: A498 renal
[53] = tested on: SW-620 colon
[54] = tested on: PC-3 prostate
[55] = tested on: LOX IMVI melanoma
[56] = tested on: MCF7 breast

In the case of `CCOC(=O)c1ccc(-c2ccc(Cl)cc2)[nH]1`, the TGI [1] is reported as over 10 µM, the TGI [2] is reported as over 10 µM and the TGI [3] is reported as over 10 µM. The TGI [4] was over 10 µM, the TGI [5] was over 10 µM and the TGI [6] was over 10 µM. For the same compound, the TGI [7] was over 10 µM, the TGI [8] was over 10 µM and the TGI [9] was over 10 µM. For the same compound, the TGI [10] was over 10 µM, the TGI [11] was over 10 µM and the TGI [12] was over 10 µM. For the same compound, the TGI [13] was over 10 µM, the TGI [14] was over 10 µM and the TGI [15] was over 10 µM. The TGI [16] was over 10 µM, the TGI [17] was over 10 µM and the TGI [18] was over 10 µM. The TGI [19] was over 10 µM, the TGI [20] was over 10 µM and the TGI [21] was over 10 µM. For the same compound, the TGI [22] was over 10 µM, the TGI [23] was over 10 µM and the TGI [24] was over 10 µM. It also gave a TGI [25] of over 10 µM, a TGI [26] of over 10 µM and a TGI [27] of over 10 µM. The TGI [28] was over 10 µM, the TGI [29] was over 10 µM and the TGI [30] was over 10 µM. It also gave a TGI [31] of over 10 µM, a TGI [32] of over 10 µM and a TGI [33] of over 10 µM. For the same compound, the TGI [34] was over 10 µM, the TGI [35] was over 10 µM and the TGI [36] was over 10 µM. For the same compound, the TGI [37] was over 10 µM, the TGI [38] was over 10 µM and the TGI [39] was over 10 µM. For the same compound, the TGI [40] was over 10 µM, the TGI [41] was over 10 µM and the TGI [42] was over 10 µM. The TGI [43] was over 10 µM, the TGI [44] was over 10 µM and the TGI [45] was over 10 µM. It also gave a TGI [46] of over 10 µM.
Work on `CCCCCCc1cc2cc(C(=O)Nc3ccc(F)cc3)c(=N)oc2cc1O` yielded a TGI [1] of 8.64 µM, a TGI [47] of 12.2 µM and a TGI [2] of 18.4 µM. For the same compound, the TGI [3] was 13.2 µM, the TGI [4] was over 100 µM and the TGI [48] was 13.6 µM. It also gave a TGI [7] of 5.59 µM, a TGI [8] of 4.6 µM and a TGI [9] of 25.3 µM. The TGI [10] was 12.3 µM, the TGI [12] was 7.32 µM and the TGI [13] was 8.09 µM. The TGI [14] was over 100 µM, the TGI [15] was 3.28 µM and the TGI [16] was 3.8 µM. For the same compound, the TGI [17] was 6.78 µM, the TGI [19] was 4.47 µM and the TGI [20] was 4.62 µM. For the same compound, the TGI [21] was 21.2 µM, the TGI [49] was 43.5 µM and the TGI [22] was 8.7 µM. The TGI [24] was over 100 µM, the TGI [50] was 4.96 µM and the TGI [51] was over 100 µM. The TGI [52] was over 100 µM, the TGI [25] was 11.1 µM and the TGI [53] was over 100 µM. The TGI [27] was 5.61 µM, the TGI [28] was 10.1 µM and the TGI [29] was 23.2 µM. It also gave a TGI [30] of 10.1 µM, a TGI [31] of 14.9 µM and a TGI [54] of 13.5 µM. The TGI [32] was 9.98 µM, the TGI [33] was 29.2 µM and the TGI [34] was 77.6 µM. It also gave a TGI [35] of 7.62 µM, a TGI [55] of 4.93 µM and a TGI [36] of 28.1 µM. For the same compound, the TGI [37] was 8.23 µM, the TGI [38] was over 100 µM and the TGI [39] was over 100 µM. For the same compound, the TGI [40] was 4.82 µM, the TGI [41] was 3.75 µM and the TGI [42] was over 100 µM. The TGI [56] was 33.7 µM, the TGI [43] was 8.94 µM and the TGI [44] was over 100 µM. For the same compound, the TGI [45] was over 100 µM and the TGI [46] was 6.13 µM.
